Data reported in patent US20250177405A1, “METHODS OF TREATING NEUROLOGICAL AND CARDIOVASCULAR CONDITIONS” (ASTROCYTE PHARMACEUTICALS, INC., priority 2021, published 2025).

Test system: photothrombosis-induced stroke in mice
Experiment: mouse photothrombotic stroke model
Assay type: in vivo
Procedure: Photothrombosis-induced Stroke: Photothrombosis is performed as described in Zheng et al 2010 (PloS One 5 (12): e14401). In brief, Rose Bengal is a fluorescent dye that when injected into the vasculature and excited, generates singlet oxygen that damages the endothelial wall and induces a local thrombosis (clot). Using this technique, mice are given a 0.1 mL tail-vein injection of sterilized Rose Bengal (RB, Sigma, U.S.A.) in artificial cerebral spinal fluid (aCSF). The RB concentration is 20 mg/mL. A cortical region is centered in the imaging field and illuminated with a green laser (543 nm, 5 mW) using a 0.8-NA 40× water-immersion objective (Nikon, Tokyo). The clot formation is monitored in real time until the targeted vessel or downstream capillaries are firmly occluded. […]
Animals and Photothrombosis-induced Stroke: Stroke is performed as described in Zheng et al 2010 (PloS One 5 (12): e14401). […] Depth of anesthesia is monitored and regulated according to vital signs, pinch withdrawal and eye blinks. […] Vital signs including oxygen saturation, respiratory rate, and heart rate are continuously monitored by using the MouseOx system (STARR Life Sciences). […]
Post photothrombotic infarction evaluation. The size of cerebral infarcts is evaluated using 2,3,5-Triphenyltetrazolium chloride (TTC) staining as described in Zheng et al 2010 (PloS One 5 (12): e14401). […]

What does the source list for `CSc1nc(N)c2ncn([C@H]3C(O)C(O)[C@]4(CO)C[C@H]34)c2n1` (stereo in doubt) [Compound I-1]?
efficacy in presence of the A3 antagonist MRS1523 (mouse photothrombotic stroke and TBI models): blocked; efficacy in mouse photothrombotic stroke model (mouse, in vivo): significant efficacy
